Reference: PubChem BioAssay AID1963867 (Molecular Pharmacology Branch, DTP, NCI, 2024)

Test system: KRAS-mutant PDC tumor spheroid with HUVEC/MSC, viability
Test: Anticancer human tumor 327498-153-R-J2-PDC patient-derived uterine carcinosarcoma cell line growth inhibition [KRAS2]
Settings: for IC50: curve of first compound; for viability, T/C: stronger effect = lower value
Excerpt: Multicellular complex tumor spheroid response to RAS pathway inhibitors in combination with a targeted agents in patient-derived cell lines with oncogenic KRAS variants from multiple cancer types
A high-throughput screen of multi-cell type tumor spheroids was designed to identify active combinations of targeted small molecules and KRAS pathway inhibitors. Complex spheroids include a stromal component modeled by human endothelial cells (HUVEC) and fibroblasts modeled by human mesenchymal stem cells (MSCs). The concentration ranges selected for each drug and investigational agent were based upon clinically achievable concentrations if the clinical Cmax of the agent was known.
Compounds. The drugs and investigational agents: BI-3406 (NSC825286), BAY-293 (NSC824723), batoprotafib (TNO155; NSC825523), sotorasib (AMG 510; NSC818433), MRTX1257 (NSC819558), elimusertib (BAY 1895344; NSC800525), molibresib (GSK525762; NSC774829), temuterkib (LY3214996; NSC803410), venetoclax (NSC766270), alisertib (NSC759677), olaparib (NSC753686), talazoparib (NSC767125), erdafitinib (NSC781556), ipatasertib (NSC767898), cabozantinib (NSC761068), nintedanib (NSC756659), abemaciclib (NSC768073), docetaxel (NSC628503), trametinib (NSC758246), and sapanisertib (NSC764658) were obtained from the National Cancer Institute (NCI) Developmental Therapeutics Program Chemical Repository. The FDA-approved anticancer drug set is available from the Developmental Therapeutics Program. […] The stock solutions were prepared in dimethyl sulfoxide (DMSO, Sigma-Aldrich, St. Louis, MO, cat. D2650) at 800-fold the tested concentration and stored at -70 degrees C prior to their use. All drugs and investigational agents were tested over a range starting from a high concentration at or near the clinical Cmax and decreasing in half-log increments. If the clinical Cmax for an agent had not been determined, the highest concentration tested was 10 microM.
Cell Culture. All cells were maintained in an incubator at 37 degrees C and 5% CO2 with 95% humidity. The PDC lines were cultured according to standard operating procedures established by the NCI PDMR (https://pdmr.cancer.gov/sops/default.htm). Briefly, all PDCs were thawed and cultured in Matrigel-coated flasks prepared with a working solution of 1X Ham's F-12 nutrient mix, without supplementation (Invitrogen, Waltham, MA, cat. 11765054), 100 U/mL penicillin-streptomycin (Invitrogen, cat. 15140122), and 2.5% Matrigel (Corning Inc., Corning, NY, cat. 354248) for the first three passages. All PDCs were cultured in complete DMEM/F-12 media containing advanced DMEM/F-12 (Invitrogen, cat. 12634028), 4.9% defined fetal bovine serum, heat inactivated (HyClone Laboratories Inc., Logan, UT, cat. SH30070.03HI), 389 ng/mL hydrocortisone (Sigma-Aldrich, cat. H4001), 9.7 ng/mL human EGF recombinant protein (Invitrogen, cat. PHG0313), 23.4 microg/mL adenine (Sigma-Aldrich, cat. A2786), 97.3 U/mL penicillin-streptomycin (Invitrogen, cat. 15140122), 1.9 mM L-glutamine (Invitrogen, cat. 25030081), and 9.7 microM Y-27632 dihydrochloride (Tocris Bioscience, Bristol, United Kingdom, cat. 1254). The PDCs were cultured in complete DMEM/F12 media without 9.7 microM Y-27632 dihydrochloride for at least two passages prior to the screen. The established cell line HOP-62 was cultured in RPMI 1640 medium, HEPES (Invitrogen, cat. 22400105) with 10% defined fetal bovine serum (HyClone Laboratories Inc., cat. SH30070.03) and 2 mM L-glutamine (Invitrogen, cat. 25030081). The pooled donor HUVEC were cultured in endothelial cell growth medium 2 (PromoCell, Heidelberg, Germany, cat. C-22011) and the hMSC were cultured in mesenchymal stem cell growth medium 2 (PromoCell, cat. C-28009). For all experiments, HUVEC and hMSC were used at passages </=5, while the malignant cell lines were used at passages </=15. […]

[1] = second compound 0.1 µM, first compound 0.0316 µM
[2] = second compound 0.1 µM, first compound 0.1 µM
[3] = second compound 0.1 µM, first compound 0.316 µM
[4] = second compound 0.1 µM, first compound 1 µM
[5] = second compound 0.1 µM, first compound 3.16 µM
[6] = second compound 0.316 µM, first compound 0.0316 µM
[7] = second compound 0.316 µM, first compound 0.1 µM
[8] = second compound 0.316 µM, first compound 0.316 µM
[9] = second compound 0.316 µM, first compound 1 µM
[10] = second compound 0.316 µM, first compound 3.16 µM
[11] = second compound 1 µM, first compound 0.0316 µM
[12] = second compound 1 µM, first compound 0.1 µM
[13] = second compound 1 µM, first compound 0.316 µM
[14] = second compound 1 µM, first compound 1 µM
[15] = second compound 1 µM, first compound 3.16 µM
[16] = second compound 3.16 µM, first compound 0.0316 µM
[17] = second compound 3.16 µM, first compound 0.1 µM
[18] = second compound 3.16 µM, first compound 0.316 µM
[19] = second compound 3.16 µM, first compound 1 µM
[20] = second compound 3.16 µM, first compound 3.16 µM
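Further: spheroids exposed to agents for seven days before reading.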
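Wherever viability, T/C is given: 100% = DMSO vehicle wells so lower means fewer viable cells.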

`Cn1nccc1Nc1nccc(-c2cc3c(s2)C(C)(C)N(CCN2CCOCC2)C3=O)n1` + C=CC(=O)N1CCN(c2nc(=O)n(-c3c(C)ccnc3C(C)C)c3nc(-c4c(O)cccc4F)c(F)cc23)C(C)C1 was tested, and the IC50 (second compound 0.1 µM) was 1.4 µM, the IC50 (second compound 0.316 µM) was 2.24 µM and the IC50 (second compound 1 µM) was 3.12 µM. The IC50 (second compound 3.16 µM) was 0.925 µM, the IC50 (second compound 10 µM) was less than 0.0316 µM and the viability, T/C [1] was 60.7%. It also gave a viability, T/C [2] of 61.5%, a viability, T/C [3] of 55.8% and a viability, T/C [4] of 54.8%. For the same molecule, the viability, T/C [5] was 41.8%, the viability, T/C (second compound 0.1 µM, first compound 10 µM) was 36.5% and the viability, T/C [6] was 55.7%. The viability, T/C [7] was 63.8%, the viability, T/C [8] was 55.1% and the viability, T/C [9] was 54%. It also gave a viability, T/C [10] of 46.6%, a viability, T/C (second compound 0.316 µM, first compound 10 µM) of 42.2% and a viability, T/C [11] of 63%. The viability, T/C [12] was 56.3%, the viability, T/C [13] was 60.9% and the viability, T/C [14] was 55.2%. It also gave a viability, T/C [15] of 49.1%, a viability, T/C (second compound 1 µM, first compound 10 µM) of 42.4% and a viability, T/C [16] of 60.5%. For the same molecule, the viability, T/C [17] was 59.3%, the viability, T/C [18] was 50.8% and the viability, T/C [19] was 49.6%. The viability, T/C [20] was 48.3%, the viability, T/C (second compound 3.16 µM, first compound 10 µM) was 40.5% and the viability, T/C (second compound 10 µM, first compound 0.0316 µM) was 49.9%. For the same molecule, the viability, T/C (second compound 10 µM, first compound 0.1 µM) was 47.8%, the viability, T/C (second compound 10 µM, first compound 0.316 µM) was 45.3% and the viability, T/C (second compound 10 µM, first compound 1 µM) was 37.7%. It also gave a viability, T/C (second compound 10 µM, first compound 3.16 µM) of 41.1% and a viability, T/C (second compound 10 µM, first compound 10 µM) of 29.3%.
For `CC(=O)OC12COC1CC(O)C1(C)C(=O)C(O)C3=C(C)C(OC(=O)C(O)C(NC(=O)OC(C)(C)C)c4ccccc4)CC(O)(C(OC(=O)c4ccccc4)C21)C3(C)C` (stereo not given) + C=CC(=O)N1CCN(c2nc(OCC3CCCN3C)nc3c2CCN(c2cccc4cccc(C)c24)C3)CC1CC#N, the IC50 (second compound 0.0316 µM) was less than 0.01 µM, the IC50 (second compound 0.1 µM) was less than 0.01 µM and the IC50 (second compound 0.316 µM) was less than 0.01 µM. It also gave an IC50 (second compound 1 µM) of less than 0.01 µM, an IC50 (second compound 3.16 µM) of less than 0.01 µM and a viability, T/C (second compound 0.0316 µM, first compound 0.01 µM) of 6.75%. For the same molecule, the viability, T/C (second compound 0.0316 µM, first compound 0.0316 µM) was 5.33%, the viability, T/C (second compound 0.0316 µM, first compound 0.1 µM) was 6.51% and the viability, T/C (second compound 0.0316 µM, first compound 0.316 µM) was 6.19%. It also gave a viability, T/C (second compound 0.0316 µM, first compound 1 µM) of 7.48%, a viability, T/C (second compound 0.0316 µM, first compound 3.16 µM) of 10.1% and a viability, T/C (second compound 0.1 µM, first compound 0.01 µM) of 5.53%. For the same molecule, the viability, T/C [1] was 4.17%, the viability, T/C [2] was 3.96% and the viability, T/C [3] was 4.52%. It also gave a viability, T/C [4] of 6.93%, a viability, T/C [5] of 8.74% and a viability, T/C (second compound 0.316 µM, first compound 0.01 µM) of 4.9%. It also gave a viability, T/C [6] of 4.31%, a viability, T/C [7] of 4.23% and a viability, T/C [8] of 4.71%. The viability, T/C [9] was 5.82%, the viability, T/C [10] was 7.76% and the viability, T/C (second compound 1 µM, first compound 0.01 µM) was 4.4%. It also gave a viability, T/C [11] of 3.43%, a viability, T/C [12] of 3.95% and a viability, T/C [13] of 3.86%. For the same molecule, the viability, T/C [14] was 5.54%, the viability, T/C [15] was 4.84% and the viability, T/C (second compound 3.16 µM, first compound 0.01 µM) was 7.35%. For the same molecule, the viability, T/C [16] was 6.27%, the viability, T/C [17] was 5.84% and the viability, T/C [18] was 6.15%. For the same molecule, the viability, T/C [19] was 7.24% and the viability, T/C [20] was 10.6%.
